Values of other authors as cited in patent US4801594A, “Aromatase inhibitors” (Eli Lilly and Company, priority 1984, dated 1989).

Test system: breast cancer
Details: known aromatase inhibitors; see Cancer Research, Vol. 42, Suppl. 8: 3261s (1982)

Structure (SMILES) | effect in treatment of breast cancer
CCC1(c2ccc(N)cc2)CCC(=O)NC1=O (centres unmarked) [aminoglutethimide] | beneficial effect
C[C@]12C=CC(=O)C=C1CC[C@@H]1[C@@H]2CC[C@]2(C)OC(=O)CC[C@@H]12 [testolactone] | beneficial effect
